Literature values, collected in article PMC7582727, “Functional Impact of BeKm-1, a High-Affinity hERG Blocker, on Cardiomyocytes Derived from Human-Induced Pluripotent Stem Cells” (International Journal of Molecular Sciences, 2020).

Assays:
[1] = system: hERG channel; conditions: cited from earlier work
Excerpt: The Kv11.1 channel (hERG) and the corresponding IKr current play a major role in cardiac repolarization (Figure S1). […] Long QT syndrome is one of the cardiac diseases that has been studied in the greatest detail. Type II long QT syndrome is associated with a decrease in IKr currents, as opposed to short QT syndrome, which is associated with increased IKr currents. Type II long QT syndrome is called “inherited” when a mutation in the gene encoding hERG, KCNH2, gives rise to a loss of ... || In this report, we focused on BeKm-1, a toxin that was originally isolated from the venom of Buthus eupeus scorpion. […] According to its 3D structure, the peptide adopts an α-helix and three β-strands organized in a twisted antiparallel β-sheet. By homology with other toxins, BeKm-1 is a member of the γ-KTx subfamily of scorpion toxins.

[2] = system: hiPS-CMs; conditions: ref [13]; cited from earlier work
Excerpt: In this study, we describe the effects of the high-affinity hERG blocker BeKm-1 on hiPS-CMs. By using a variety of approaches, we efficiently assessed these effects on the electrophysiological, calcium handling, and contractile properties of hiPS-CMs providing a large response picture of this natural peptide.

[3] = system: rabbit isolated hearts; conditions: ref [14]; cited from earlier work
[4] = system: integrated models; conditions: ref [15]; cited from earlier work

Row | Compound | hERG channel block ([1]; non-selective compounds, no reference given) | chronotropic response, hiPS-CMs [2] | chronotropic response, rabbit isolated hearts [3] | bradycardic effects [4] | IC50 [1] | face of hERG channel acted on [1]
1 | CN(C)CCCN1c2ccccc2Sc2ccc(Cl)cc21 [chlorpromazine] | block hERG channels | – | – | – | – | –
2 | CN(CCOc1ccc(NS(C)(=O)=O)cc1)CCc1ccc(NS(C)(=O)=O)cc1 [dofetilide] | – | negative chronotropic response | negative chronotropic response | bradycardic effects | […] | […]
